According to ChEMBL document CHEMBL5331068, “Briarane-type diterpenoids, the inhibitors of osteoclast formation by interrupting Keap1-Nrf2 interaction and activating Nrf2 pathway” (Eur J Med Chem, 2023):
Activity calls are given as the source filed them. The calls are words filed in the database; no cut-off is given here.

Experiments:
[1] = Cytotoxicity against C57BL/6 mouse BMDM cells incubated for 48 hrs by MTT assay; format: toxicity, cell-based; details: BMDM cells (bone marrow-derived macrophages)
BMDM = experiment: Anti-osteoclastogenesis activity in C57BL/6 mouse BMDM cells assessed as inhibition of RANKL-induced osteoclastogenesis at 10 uM incubated for 7 days in the presence of M-CSF by TRAP-staining based microscopic analysis relative to control; format: functional; details: for inhibition at 10 µM: C57BL/6, BMDM, 168 h, time 7 day
[2] = target: Kelch-like ECH-associated protein 1 (Homo sapiens, UniProt Q14145); experiment: Binding affinity to recombinant human Keap1 by SPR analysis
Sequence of Kelch-like ECH-associated protein 1 (Q14145 whole entry): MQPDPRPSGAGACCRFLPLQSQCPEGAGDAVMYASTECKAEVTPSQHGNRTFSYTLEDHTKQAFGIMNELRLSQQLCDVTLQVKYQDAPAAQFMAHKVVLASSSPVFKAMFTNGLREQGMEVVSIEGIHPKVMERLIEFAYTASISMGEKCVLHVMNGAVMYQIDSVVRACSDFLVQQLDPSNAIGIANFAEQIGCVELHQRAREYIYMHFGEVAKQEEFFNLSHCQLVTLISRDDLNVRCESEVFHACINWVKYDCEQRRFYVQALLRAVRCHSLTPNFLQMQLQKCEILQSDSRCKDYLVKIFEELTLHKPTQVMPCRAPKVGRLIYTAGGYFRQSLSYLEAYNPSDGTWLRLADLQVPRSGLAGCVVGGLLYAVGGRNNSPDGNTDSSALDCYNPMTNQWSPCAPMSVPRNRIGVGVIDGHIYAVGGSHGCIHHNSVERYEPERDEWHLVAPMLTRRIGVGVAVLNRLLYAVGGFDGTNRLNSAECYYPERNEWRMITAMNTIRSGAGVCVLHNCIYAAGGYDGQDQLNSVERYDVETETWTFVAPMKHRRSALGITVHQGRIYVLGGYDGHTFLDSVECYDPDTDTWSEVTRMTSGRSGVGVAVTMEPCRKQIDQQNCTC

Activity [2]	Structure (SMILES)	CC50 at 48 h [1] [µM]	inhibition at 10 µM (BMDM) [%]	inhibition (BMDM; time 7.0 day)
–	C=C1[C@H]2O[C@]3([C@@H](C)C(=O)O[C@H]3[C@H]1Cl)[C@@H](OC(C)=O)[C@H]1[C@@]3(CO3)[C@H](OC(=O)CC(C)C)C[C@H](OC(C)=O)[C@]1(C)[C@@H](OC(C)=O)[C@@H]2OC(C)=O	> 50	51.7	–
inactive	CC(=O)O[C@H]1/C=C\C(CO)=C/[C@@H]2OC(=O)[C@H](C)[C@@]2(O)[C@@H](OC(C)=O)[C@H]2[C@@](O)(CO)[C@H](O)[C@H](OC(=O)CC(C)C)[C@H](OC(C)=O)[C@]12C	> 50	62.8	–
–	CC(=O)O[C@H]1/C=C\C(CCl)=C/[C@@H]2OC(=O)[C@H](C)[C@@]2(O)[C@@H](OC(C)=O)[C@H]2[C@@]3(CO3)[C@H](OC(C)=O)C[C@H](OC(=O)CC(C)C)[C@]12C	> 50	18	–
inactive	CC(=O)O[C@H]1[C@@H](OC(=O)CC(C)C)[C@](O)(CO)[C@@H]2[C@H](OC(C)=O)[C@@]3(O)[C@H](/C=C(CO)\C=C/[C@H](OC(=O)COC(=O)CC(C)C)[C@@]2(C)[C@H]1OC(C)=O)OC(=O)[C@@H]3C	> 50	30.8	–
–	CCOCC1=C/[C@@H]2OC(=O)[C@H](C)[C@@]2(O)[C@@H](OC(C)=O)[C@H]2[C@@]3(CO3)[C@H](OC(=O)CC(C)C)C[C@H](OC(C)=O)[C@]2(C)[C@@H](OC(C)=O)/C=C\1	> 50	51.2	–
–	CC(=O)O[C@H]1/C=C\C(CO)=C/[C@@H]2OC(=O)[C@H](C)[C@@]2(O)[C@@H](OC(C)=O)[C@H]2[C@@]3(CO3)[C@H](OC(C)=O)C[C@H](OC(C)=O)[C@]12C	< 10	–	–
–	C=C1[C@H]2O[C@]3([C@H](C)C(=O)O[C@H]3[C@H]1Cl)[C@@H](OC(C)=O)[C@H]1[C@]3(CC[C@H](OC(C)=O)[C@]1(C)[C@@H](OC(C)=O)[C@@H]2OC(C)=O)CO3	> 50	12.2	–
–	CC(=O)OC1[C@@H](OC(=O)CC(C)C)[C@]2(CO2)[C@@H]2[C@H](OC(C)=O)[C@@]3(O)[C@H](/C=C(CCl)\C=C/[C@H](OC(=O)COC(=O)CC(C)C)[C@@]2(C)[C@H]1OC(C)=O)OC(=O)[C@@H]3C (stereo partly specified)	> 50	86.6	–
–	C=C1/C=C\[C@@H](OC(=O)COC(=O)CC(C)C)[C@@]2(C)[C@@H](OC(C)=O)[C@@H](OC(C)=O)[C@@H](OC(=O)CC(C)C)[C@]3(CO3)[C@@H]2[C@H](OC(C)=O)[C@]2(O)[C@@H](C)C(=O)O[C@H]2C1Cl (stereo partly specified)	> 50	84.3	–
–	C=C1CC[C@H](OC(C)=O)[C@]2(C)[C@@H](OC(C)=O)C[C@@H](OC(C)=O)/C(COC(=O)CC(C)C)=C\[C@@H]3OC(=O)[C@H](C)[C@@]3(O)[C@@H](OC(C)=O)[C@@H]12	> 50	91.3	–
–	CC(=O)O[C@H]1[C@@H](OC(=O)CC(C)C)[C@]2(CO2)[C@@H]2[C@H](OC(C)=O)[C@@]3(O)[C@H](/C=C(CO)\C=C/[C@H](OC(C)=O)[C@@]2(C)[C@H]1OC(C)=O)OC(=O)[C@@H]3C	> 50	55.8	–
Active	C=C1[C@H](OC(=O)CC(C)C)C[C@H](OC(C)=O)[C@@]2(C)[C@@H](OC(C)=O)C[C@@H](OC(C)=O)[C@]3(CO3)[C@@H]2[C@H](OC(C)=O)[C@]2(O)[C@@H](C)C(=O)O[C@H]2[C@H]1Cl	> 50	100	–
Active	C=C1CC[C@H](OC(C)=O)[C@@]2(C)[C@@H](OC(C)=O)C[C@@H](OC(C)=O)[C@]3(CO3)[C@@H]2[C@H](OC(C)=O)[C@]2(O)[C@@H](C)C(=O)O[C@H]2[C@H]1Cl	> 50	13.5	–
inactive	CC(=O)O[C@H]1[C@@H](OC(=O)CC(C)C)[C@](O)(CO)[C@@H]2[C@H](OC(C)=O)[C@@]3(O)[C@H](/C=C(CCl)\C=C/[C@H](OC(C)=O)[C@@]2(C)[C@H]1OC(C)=O)OC(=O)[C@@H]3C	> 50	20.9	–
Active	C=C1[C@H]2O[C@]3([C@@H](C)C(=O)O[C@H]3[C@H]1Cl)[C@@H](OC(C)=O)[C@H]1[C@@](O)(CCl)CC[C@H](OC(C)=O)[C@]1(C)[C@@H](OC(C)=O)[C@@H]2OC(C)=O	> 50	98.8	–
inactive	CC(=O)O[C@H]1[C@@H](OC(=O)CC(C)C)[C@](O)(CO)[C@@H]2[C@H](OC(C)=O)[C@@]3(O)[C@H](/C=C(CO)\C=C/[C@H](OC(C)=O)[C@@]2(C)[C@H]1OC(C)=O)OC(=O)[C@@H]3C	> 50	34.8	–
–	CC(=O)O[C@H]1CC/C(C)=C\[C@@H]2OC(=O)[C@H](C)[C@@]2(O)[C@@H](OC(C)=O)[C@H]2[C@]3(CC[C@H](OC(C)=O)[C@]12C)CO3 [JUNCEELLOLIDE K]	> 50	86.6	–
–	C=C1CC[C@H](OC(C)=O)[C@]2(C)[C@@H](OC(C)=O)C[C@@H](OC(C)=O)/C(C(=O)OC)=C\[C@@H]3OC(=O)[C@H](C)[C@@]3(O)[C@@H](OC(C)=O)[C@@H]12	> 50	49.4	–

Activity [2]	Structure (SMILES)	CC50 at 48 h [1] [µM]	inhibition at 10 µM (BMDM) [%]	inhibition (BMDM; time 7.0 day)
Active	C=C1[C@H](Cl)[C@@H]2OC(=O)[C@H](C)[C@]23O[C@]1(O)C[C@H](OC(C)=O)[C@@]1(C)[C@@H](OC(C)=O)C[C@@H](OC(C)=O)[C@]2(CO2)[C@@H]1[C@@H]3OC(C)=O	> 50	29.3	–
–	CC(=O)O[C@H]1/C=C\C(CO)=C/[C@@H]2OC(=O)[C@H](C)[C@@]2(O)[C@@H](OC(C)=O)[C@H]2[C@@]3(CO3)[C@H](OC(C)=O)C[C@H](OC(=O)CC(C)C)[C@]12C	> 50	68	–
–	CC(=O)O[C@H]1/C=C\C(CCl)=C/[C@@H]2OC(=O)[C@H](C)[C@@]2(O)[C@@H](OC(C)=O)[C@H]2[C@@]3(CO3)[C@H](OC(=O)CC(C)C)C[C@H](OC(C)=O)[C@]12C	> 50	29.1	–
–	C=C1[C@H](Cl)[C@@H]2OC(=O)[C@H](C)[C@]23O[C@]1(O)C[C@H](OC(C)=O)[C@@]1(C)[C@@H](OC(C)=O)C[C@@H](OC(=O)CC(C)C)[C@]2(CO2)[C@@H]1[C@@H]3OC(C)=O	> 50	–	inactive
–	CC(=O)O[C@H]1CC[C@]2(CO2)[C@@H]2[C@H](OC(C)=O)[C@@]3(O)[C@H](/C=C(/C)[C@H](OC(C)=O)C[C@H](OC(C)=O)[C@@]12C)OC(=O)[C@@H]3C [11ALPHA,20ALPHA-EPOXYJUNCEELLOLIDE]	> 50	58.1	–
–	C=C1[C@H](OC(C)=O)C[C@H](OC(C)=O)[C@@]2(C)[C@@H](OC(C)=O)C[C@@H](OC(C)=O)[C@]3(CO3)[C@@H]2[C@H](OC(C)=O)[C@]2(O)[C@@H](C)C(=O)O[C@H]2[C@H]1Cl	> 50	80.8	–
–	C=C1/C=C/[C@H](OC(C)=O)[C@@]2(C)[C@@H](OC(C)=O)CC[C@]3(CO3)[C@@H]2[C@H](OC(C)=O)[C@]2(O)[C@@H](C)C(=O)O[C@H]2[C@H]1Cl [JUNCEELLOLIDE C]	> 50	75	–
–	C=C1CC[C@H](OC(=O)CC(C)C)[C@]2(C)[C@@H](OC(C)=O)C[C@@H](OC(C)=O)/C(C)=C\[C@@H]3OC(=O)[C@H](C)[C@@]3(O)[C@@H](OC(C)=O)[C@@H]12	> 50	68	–
–	CCOCC1=C/[C@@H]2OC(=O)[C@H](C)[C@@]2(O)[C@@H](OC(C)=O)[C@H]2[C@@]3(CO3)[C@H](OC(=O)CC(C)C)C(OC(C)=O)[C@H](OC(C)=O)[C@]2(C)[C@@H](OC(=O)COC(=O)CC(C)C)/C=C\1 (stereo partly specified)	> 50	41.9	–
–	C=C1CC[C@H](OC(C)=O)[C@@]2(C)[C@@H](OC(C)=O)C[C@@H](OC(=O)CC(C)C)[C@]3(CO3)[C@@H]2[C@H](OC(C)=O)[C@]2(O)[C@@H](C)C(=O)O[C@H]2[C@H]1Cl [JUNCENOLIDE J]	> 50	98.8	–
–	C=C1CC[C@H](OC(C)=O)[C@]2(C)[C@@H](OC(C)=O)CC/C(C)=C\[C@@H]3OC(=O)[C@H](C)[C@@]3(O)[C@@H](OC(C)=O)[C@@H]12	> 50	64.5	–
–	C=C1CC[C@H](OC(C)=O)[C@]2(C)[C@@H](OC(C)=O)C[C@@H](OC(C)=O)/C(CO)=C\[C@@H]3OC(=O)[C@H](C)[C@@]3(O)[C@@H](OC(C)=O)[C@@H]12	> 50	40.7	–
–	C=C1/C=C/[C@H](OC(C)=O)[C@@]2(C)[C@@H](OC(C)=O)C[C@@H](OC(=O)CC(C)C)[C@]3(CO3)[C@@H]2[C@H](OC(C)=O)[C@]2(O)[C@@H](C)C(=O)O[C@H]2[C@H]1Cl [GEMMACOLIDE I]	> 50	62.2	–
–	C=C1CC[C@H](OC(C)=O)[C@]2(C)[C@@H](OC(C)=O)C[C@@H](OC(C)=O)/C(C)=C\[C@@H]3OC(=O)[C@H](C)[C@@]3(O)[C@@H](OC(C)=O)[C@@H]12	> 50	58.7	–
–	CC(=O)O[C@H]1/C=C\C(CO)=C/[C@@H]2OC(=O)[C@H](C)[C@@]2(O)[C@@H](OC(C)=O)[C@H]2[C@@]3(CO3)[C@H](OC(=O)CC(C)C)C[C@H](OC(C)=O)[C@]12C	< 10	–	–
–	CC(=O)O[C@H]1/C=C\C(COC(=O)CC(C)C)=C/[C@@H]2OC(=O)[C@H](C)[C@@]2(O)[C@@H](OC(C)=O)[C@H]2[C@@]3(CO3)[C@H](OC(=O)CC(C)C)C[C@H](OC(C)=O)[C@]12C	> 50	25	–
–	C=C1/C=C/[C@H](OC(C)=O)[C@@]2(C)[C@@H](OC(C)=O)C[C@@H](OC(C)=O)[C@]3(CO3)[C@@H]2[C@H](OC(C)=O)[C@]2(O)[C@@H](C)C(=O)O[C@H]2[C@H]1Cl [GEMMACOLIDE H]	> 50	13.1	–
